Values of other authors in patent publication US12358889B2, “Vaporizable alkaloid compositions and methods of use thereof” (Ready Mix Naturals, LLC, priority 2023, dated 2025).

Columns and labels:
[1] = molecular target: TRPV1 (Homo sapiens, UniProt Q8NER1); settings: among phytocannabinoids
[2] = molecular target: TRPA1 (Homo sapiens, UniProt O75762)
[3] = molecular target: T1, TRPV2 (Homo sapiens, UniProt Q9Y5S1); settings: among phytocannabinoids
T1 sequence (Q9Y5S1 1-764): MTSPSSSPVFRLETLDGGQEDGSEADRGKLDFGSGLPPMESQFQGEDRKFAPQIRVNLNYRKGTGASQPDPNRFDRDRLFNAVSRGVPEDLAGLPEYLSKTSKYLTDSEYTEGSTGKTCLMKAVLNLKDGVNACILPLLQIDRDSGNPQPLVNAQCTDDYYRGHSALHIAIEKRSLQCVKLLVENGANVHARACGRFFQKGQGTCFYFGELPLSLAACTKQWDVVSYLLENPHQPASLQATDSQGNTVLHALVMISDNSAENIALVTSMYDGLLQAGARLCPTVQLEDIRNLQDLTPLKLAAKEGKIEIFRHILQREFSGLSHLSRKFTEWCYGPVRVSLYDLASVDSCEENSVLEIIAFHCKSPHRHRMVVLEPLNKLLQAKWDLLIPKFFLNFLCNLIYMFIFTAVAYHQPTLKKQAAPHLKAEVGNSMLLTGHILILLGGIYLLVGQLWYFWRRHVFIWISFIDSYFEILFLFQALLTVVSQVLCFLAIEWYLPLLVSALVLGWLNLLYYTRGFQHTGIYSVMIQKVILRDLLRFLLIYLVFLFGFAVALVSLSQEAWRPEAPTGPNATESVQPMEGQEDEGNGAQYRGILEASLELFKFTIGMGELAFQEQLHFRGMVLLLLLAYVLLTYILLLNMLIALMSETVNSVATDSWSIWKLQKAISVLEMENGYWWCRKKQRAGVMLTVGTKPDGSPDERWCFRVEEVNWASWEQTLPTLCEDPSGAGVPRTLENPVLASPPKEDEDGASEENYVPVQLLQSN

Sequence of TRPA1 (O75762 whole entry, species assumed): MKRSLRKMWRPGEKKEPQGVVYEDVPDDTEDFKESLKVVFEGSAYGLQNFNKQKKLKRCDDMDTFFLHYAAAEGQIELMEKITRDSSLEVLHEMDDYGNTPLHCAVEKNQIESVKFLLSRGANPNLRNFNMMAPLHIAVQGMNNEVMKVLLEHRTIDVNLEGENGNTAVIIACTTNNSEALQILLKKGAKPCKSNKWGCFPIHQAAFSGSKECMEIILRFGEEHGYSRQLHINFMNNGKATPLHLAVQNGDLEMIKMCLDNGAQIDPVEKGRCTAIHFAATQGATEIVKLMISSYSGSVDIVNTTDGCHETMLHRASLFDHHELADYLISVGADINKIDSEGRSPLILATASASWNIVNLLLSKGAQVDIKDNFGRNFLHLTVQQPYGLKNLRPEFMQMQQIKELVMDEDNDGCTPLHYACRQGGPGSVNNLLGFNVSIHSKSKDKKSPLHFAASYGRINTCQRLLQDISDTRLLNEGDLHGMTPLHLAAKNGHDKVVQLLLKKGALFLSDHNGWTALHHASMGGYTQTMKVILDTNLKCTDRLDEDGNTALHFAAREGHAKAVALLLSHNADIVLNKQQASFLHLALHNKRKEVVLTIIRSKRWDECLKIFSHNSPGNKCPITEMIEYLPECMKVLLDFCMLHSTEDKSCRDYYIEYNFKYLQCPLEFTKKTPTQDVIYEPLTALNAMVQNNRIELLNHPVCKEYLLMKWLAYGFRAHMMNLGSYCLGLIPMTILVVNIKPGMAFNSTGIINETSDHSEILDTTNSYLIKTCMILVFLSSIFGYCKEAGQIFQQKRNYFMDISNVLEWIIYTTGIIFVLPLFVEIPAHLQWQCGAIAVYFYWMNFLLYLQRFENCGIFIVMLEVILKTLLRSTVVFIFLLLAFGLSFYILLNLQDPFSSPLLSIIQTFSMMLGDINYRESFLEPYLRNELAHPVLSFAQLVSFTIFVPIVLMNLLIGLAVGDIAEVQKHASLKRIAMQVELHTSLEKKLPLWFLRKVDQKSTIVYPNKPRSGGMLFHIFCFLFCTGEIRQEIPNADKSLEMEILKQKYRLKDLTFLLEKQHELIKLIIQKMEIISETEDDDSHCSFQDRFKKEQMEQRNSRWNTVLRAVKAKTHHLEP
Sequence of TRPV1 (Q8NER1 whole entry, species assumed): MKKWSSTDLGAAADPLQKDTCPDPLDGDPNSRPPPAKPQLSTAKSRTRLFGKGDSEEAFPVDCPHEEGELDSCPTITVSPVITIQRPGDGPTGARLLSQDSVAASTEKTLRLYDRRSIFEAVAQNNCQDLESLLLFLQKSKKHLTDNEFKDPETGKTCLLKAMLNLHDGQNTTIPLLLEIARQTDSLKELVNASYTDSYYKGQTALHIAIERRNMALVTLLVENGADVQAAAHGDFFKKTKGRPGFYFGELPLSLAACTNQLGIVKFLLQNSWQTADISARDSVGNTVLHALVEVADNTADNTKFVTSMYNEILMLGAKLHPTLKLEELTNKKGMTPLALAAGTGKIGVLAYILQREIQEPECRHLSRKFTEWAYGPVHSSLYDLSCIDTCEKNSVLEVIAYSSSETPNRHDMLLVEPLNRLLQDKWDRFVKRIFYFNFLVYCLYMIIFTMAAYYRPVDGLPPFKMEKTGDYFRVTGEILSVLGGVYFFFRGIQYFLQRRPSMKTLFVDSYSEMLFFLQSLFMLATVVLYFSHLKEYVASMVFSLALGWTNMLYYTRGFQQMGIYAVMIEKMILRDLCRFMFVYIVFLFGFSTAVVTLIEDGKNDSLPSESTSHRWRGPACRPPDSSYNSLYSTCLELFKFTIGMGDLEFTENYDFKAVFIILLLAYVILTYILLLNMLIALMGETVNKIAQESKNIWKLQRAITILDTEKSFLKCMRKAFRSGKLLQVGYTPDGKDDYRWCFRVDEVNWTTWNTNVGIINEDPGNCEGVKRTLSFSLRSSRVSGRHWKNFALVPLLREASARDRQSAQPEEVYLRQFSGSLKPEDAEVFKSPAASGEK

Structure (SMILES)	agonism of TRPV1 [1]	activation of TRPA1 [2]	activation of TRPV2 [3]
C=C(C)[C@@H]1CCC(C)=C[C@H]1c1c(O)cc(CCCCC)cc1O [CBD, cannabidiol]	most potent and efficacious phytocannabinoid agonist of TRPV1		
CN1CCCC1c1cccnc1 (stereo not shown) [nicotine]		known activator of TRPA1	
CCCCCc1cc(O)c2c(c1)OC(C)(C)[C@@H]1CCC(C)=C[C@@H]21 [Δ^9-THC, Δ^9-tetrahydrocannabinol]		also activates TRPA1	most potent phytocannabinoid for activating TRPV2
